We go through two compounds from US12558333B2, “Agent for ameliorating and/or preventing sickle cell disease” (The University of Tokyo, priority 2019, dated 2026).

Where a name gives a salt, the structure may show the parent alone.

Test [1] has as its system SCD homo mice. As to conditions: normal oxygen concentration; 4 weeks; 5-ALA hydrochloride 50 mg/kg/day and/or SFC 3.9 mg/kg/day; vs physiological saline (FIG. 10); combination P<0.05. Here is the method:
All the prepared smear specimens were stained with May-Giemsa in the same manner as in Example 2, and the ratio of sickle cells to all red blood cells was measured. The rate of the sickle cells of the groups were compared with each other to examine the effect of the combination of 5-ALA hydrochloride and SFC on the rate of the in vivo sickle cells.

The test system of test [2] is SCD homo mouse. Description: Bleeding stress due to blood sampling in SCD model mice (blood LDH level). Type of test: in vivo. As to conditions: 50/3.9 mg/kg single administration after first blood sampling, blood sampling 2 after 3 hours, vs physiological saline.
Method: Using the LDH levels in blood in the SCD model mice as an index, the effect of 5-ALA hydrochloride on bleeding stress due to blood sampling in the SCD patients was examined.
The LDH levels in the blood collected before and after the administration were measured, and the effect of the combination of 5-ALA hydrochloride and SFC on bleeding stress due to blood sampling was evaluated.
For test [3], the system named is red blood cells collected from SCD homo mice. Description: Sickling by hypoxia exposure of cultured red blood cells collected from SCD homo mice. Type of test: cell-based, mouse. As to conditions: then 4% O2 for 1.5 hours.
From the text: SCD model mice aged 8 to 20 weeks were used. In the mice, a human HBA gene and a human HBB gene are knocked in a mouse HBA gene locus and a mouse HBB gene locus, respectively, and a gene mutation (β^s mutation) causing amino acid substitution (Val6Glu) causing SCD is introduced into the human HBB gene. Furthermore, a human HBG gene is introduced, and expression switching from post-natal γ-globin to β-globin is designed to occur as in humans. […] The SCD homo mouse was anesthetized with isoflurane, and 100 μl of blood was then collected from the vein behind the jawbone into an EDTA-2Na-coated blood sampling tube using an animal lamp set. The coagulation of the blood was prevented by lightly tapping the tube. The collected blood was transferred to a 1.5 ml tube, and centrifuged for 10 minutes under conditions of 3000 rpm and 4° C. After removing the supernatant, 1 ml of PBS was added to the precipitated red blood cells, followed by mixing by inversion, to wash the cells. The red blood cells obtained by repeating this washing operation again were diluted 200 times with a cell culture solution (RPMI 1640, 10% FBS, 1% Penicillin-Streptomycin-Fungizone Cocktail), and cultured under the conditions of 37° C., 5% CO2, and 21% O2. This red blood cell culture solution was used in the experiment within 5 days from the start of culture. […]

Turning to sodium ferrous citrate [SFC], the “rate of the in vivo sickle cells” value in test [1] is on record as “little effect”.

For the compound `NCC(=O)CCC(=O)O` [5-ALA hydrochloride, 5-aminolevulinic acid], the “increase in the LDH level in blood after blood sampling” value in test [2] is reported as “markedly suppressed”. For the same compound, in test [3] (50 μM for 4 hours, SCD homo mouse No. 72, vs 0 μM (FIG. 1)), the “red blood cells exhibiting a sickle form” value was “remarkable decrease”. The sickling rate result in test [3] (10, 25 and 50 μM for 4 hours, vs 0 μM (FIG. 2)) was “concentration-dependent decrease”. Further, the “rate of the in vivo sickle cells” value in test [1] was “slightly decreases”.
